Test results as given in US20230285399A1, “Compound for the treatment and prophylaxis of a lipofuscin-associated disease and/or a disease associated with aged oxidized melanin” (EBERHARD KARLS UNIVERSITAET TUEBINGEN MEDIZINISCHE FAKULTAET, priority 2020, published 2023).
“Also recorded” adds a separate entry of the source.

Assays:
pigmented Abca^4−/− mice [1] = conditions: mouse, in vivo
function of the retina = conditions: mouse, in vivo
pigmented Abca^4−/− mice [2] = assay: Removal of lipofuscin from RPE with SIN-1, fluorescence microscopy (SW-AF, NIR-AF) of semi-thin eye sections; assay type: in vivo
Protocol: Pigmented WT mice (12952), pigmented Abca^4-/- mice (12954/SvJae-Abca4[…] albino Abca^4-/- mice^(BALB/c-Abca4tm1Ght) (Stargardt mice) were used in this work. WT mice were purchased from Harlan Laboratories ([…], UK), the knock-out strains were bred in the inventor's in-house facility. Light cycling was 12 h light (approximately 50 lx in cages)/12 h dark, food and water were available ad libitum. Animals were anesthetized by i.p. injection of a mix of fentanyl (0.05 mg/kg body weight), midazolam (5.0 mg/kg body weight) and medetomidine (0.50 mg/kg body weight). […] The mice were 2 years old. The left eyes remained untreated as controls. The mice were killed 48 hours after the injections and the eyes were […]. Mouse eyes were fixed, embedded in epon resin and sectioned according to standard procedures. For fluorescence analysis, post-fixation and staining with heavy metals was omitted. […] Filter sets were a custom made lipofuscin filter set (excitation 370/36 nm, emission 575/15, 400 nm beam splitter) for short wavelength-autofluorescence (SW-AF) and a commercial Cy7 filter set (excitation 708/75 nm, emission 809/81 nm, 757 nm beam splitter) for NIR-AF (Near infrared AF), respectively. The lipofuscin filter set is designed to fit the reported excitation and emission maximums for lipofuscin. Binning x2 was applied for all images and acquisition times, as well as microscope and software settings were held constant for any set of samples to allow comparison of fluorescence intensities. If indicated, images with low AF intensities were post-processed with the Auto adjust colors function of the […] software to allow the localization of weak AF signals. This function enhances the contrast by redefining the darkest pixel as pure black and the brightest pixel as pure white in the histogram on a channel-by-channel basis. Fluorescence intensities were determined using Fiji software. Regions of interest were determined in fluorescence and BF images using the default threshold, and area and integrated optical density (IOD) of the region of interest were measured. […] Student's t-test with JMP 13 software (SAS, Cary, NC, USA) was used for statistical analysis. P<0·05 was considered statistically significant.

albino Abca^4−/− mice [3] = assay: Removal of lipofuscin from RPE with SIN-1, fluorescence microscopy (SW-AF) of semi-thin eye sections; assay type: in vivo; conditions: 130 μg SIN-1 into the right eye, 48 hours, vs untreated eyes
Protocol: Pigmented WT mice (12952), pigmented Abca^4-/- mice (12954/SvJae-Abca4[…] albino Abca^4-/- mice^(BALB/c-Abca4tm1Ght) (Stargardt mice) were used in this work. WT mice were purchased from Harlan Laboratories ([…], UK), the knock-out strains were bred in the inventor's in-house facility. Light cycling was 12 h light (approximately 50 lx in cages)/12 h dark, food and water were available ad libitum. Animals were anesthetized by i.p. injection of a mix of fentanyl (0.05 mg/kg body weight), midazolam (5.0 mg/kg body weight) and medetomidine (0.50 mg/kg body weight). […] The mice were 2 years old. The left eyes remained untreated as controls. The mice were killed 48 hours after the injections and the eyes were […]. Mouse eyes were fixed, embedded in epon resin and sectioned according to standard procedures. For fluorescence analysis, post-fixation and staining with heavy metals was omitted. […] Binning x2 was applied for all images and acquisition times, as well as microscope and software settings were held constant for any set of samples to allow comparison of fluorescence intensities. […] Fluorescence intensities were determined using Fiji software. Regions of interest were determined in fluorescence and BF images using the default threshold, and area and integrated optical density (IOD) of the region of interest were measured. […]

pigmented Abca^4−/− mice [4] = assay: Analysis of degradation products from lipofuscin (bisretinoids) after SIN-1 by HPLC; assay type: in vivo; conditions: 130 μg SIN-1 into the right eye, 48 hours, 6 month old mice, whole eyes; stated for all mice
Protocol: (§1) Seven albino and 6 pigmented mice were used. The left eyes remained untreated as control. After 48 hours the eyes from the Abca^4-/- mice were enucleated, immediately snap-frozen and stored at -80° C. for further processing. All the tissue preparation was made under dim red light and bisretinoids were extracted from the whole eyes and analyzed by HPLC following published protocols (Radu et al. 2004; Fang et al. 2020). Data were presented as picomoles per eye for A2E, iso-A2E, Total A2E or milli-absorbance (mAU) per eye for the other bisretinoids: […], dihydro-A2PE (A2PE-H2), and all-trans-RAL-dimer PE conjugates (at-RAL dimer-PE) as described (Radu et al. 2004).

albino Abca^4−/− mice [5] = assay: as above; assay type: in vivo; conditions: 130 μg SIN-1 into the right eye, 48 hours, 6 month old albino mice
Protocol: as §1

pigmented Abca^4−/− mice [6] = assay: Combination of SIN-1 with riboflavin, quantification of fluorescent lipofuscin granules; assay type: in vivo; conditions: 130 μg SIN-1 alone or with 80 μg Riboflavin, intravitreal, 48 hours; 100% is stated as locally
[7] = SIN-1 treated eye vs untreated eye of the same mouse

SMILES	fluorescence of lipofuscin (fluorescence intensity, arbitrary units, FIG. 3) (pigmented Abca^4−/− mice [1])	number of lipofuscin granules in RPE cell layer under the fluorescence microscope (FIG. 4) (pigmented Abca^4−/− mice [1])	ERG responses, treated vs untreated eye (function of the retina)	lipofuscin content in the retinal pigment epithelium (RPE), recognized by the loss of SW-AF (pigmented Abca^4−/− mice [2]; 130 μg SIN-1 into the right eye, 48 hours, mean of 5 eyes vs 5 untreated eyes, mice 2 years old)	NIR-AF fluorescence of the melanosomes (RPE) (pigmented Abca^4−/− mice [2]; 130 μg SIN-1 into the right eye, 48 hours, vs untreated eye)	NIR-AF in the melanosomes of the choroidal melanocytes (pigmented Abca^4−/− mice [2]; [7])	number of lipofuscin granules in SW-AF image of semi thin sections (pigmented Abca^4−/− mice [2]; [7])	fluorescence of lipofuscin (SW-AF) (albino Abca^4−/− mice [3])	amount of degradation products of lipofuscin (A2E, iso-A2E, Total A2E, A2PE, A2PE-H2, at-RAL dimer-PE) (pigmented Abca^4−/− mice [4])	enhancement of lipofuscin metabolites in albino mice compared with pigmented mice (albino Abca^4−/− mice [5])	removal of fluorescent lipofuscin granules from the RPE cells (pigmented Abca^4−/− mice [6])	reduction of the amount of fluorescent lipofuscin granules (pigmented Abca^4−/− mice [1])
O=[N+]([O-])OC1COC2C(O[N+](=O)[O-])COC12 (centres unmarked) [Isoket, 3,6-bisnitrooxyhexahydrofuro[3,2-b]-furan]	removed the fluorescence of lipofuscin	reduced the number of lipofuscin granules clearly	no difference between the treated and the untreated eyes									
N=c1c[n+](N2CCOCC2)[n-]o1 [SIN-1, 3-morpholinosydnonimine]				significant (p<0.05) reduction	reduced but not significant (p>0.05); also recorded: somewhat diminished	seems to be not effected	reduced in number	no effect	enhanced the amount of the degradation products of lipofuscin significantly	much lesser	75%	
O=[N+]([O-])O[C@@H]1CO[C@H]2[C@@H]1OC[C@@H]2O [IS5, Isosorbide mononitrate]	removed the fluorescence of lipofuscin		no difference between the treated and the untreated eyes									77%
